Data on one sequence can be found in patent US6100237A, “Use of des-Aspartate-angiotensin I as an agent for the treatment and prevention of neointima formation, restenosis, and arteriosclerosis” (National University of Singapore, priority 1997, dated 2000).

No end group written: not given here.

In the data set the test system is spontaneously hypertensive rat (SHR). The data set is described as follows: Chronic development of arteriosclerosis (abdominal aorta morphometry, tail cuff blood pressure), chronic oral administration, SHR. The class given is in vivo, spontaneously hypertensive rats (SHR). To be noted: 0.9 mg/kg/day oral; weight taken at 12, 27 and 47 weeks old (data not shown). How it is done:
Five weeks old WKY and SHR were housed four to a cage. Four SHR and four WKY were orally administered 0.9 mg/kg/day of des-Aspartate-angiotensin I in 0.5 ml of saline daily for 47 weeks. Four SHR and another four WKY served as control animals and were administered 0.5 ml saline solution daily for 47 weeks. The weight of the animals were determined weekly till 12 weeks old, fortnightly till 27 weeks old and monthly till 47 weeks old. The dose of des-Aspartate-angiotensin I was adjusted to match the increase in weight as the animals grew. The dose of 0.9 mg/kg/day was calculated based on the maximum effective oral anti-cardiac hypertrophic dose (250 nmole per rat of average weight of 325 g) in the previous patent.
The blood pressure of the animals was determined by the tail cuff method on the 46th week of treatment. On the 47th week, animals were anaesthetized with chloral hydrate and a 3-cm section (measured from the left renal artery) of the abdominal aorta was removed and fixed in 4% paraformaldehyde and 1% glutaraldehyde. The aorta was processed for paraffin embedment. 10-μ thick sections were prepared and stained with toluidine blue. Fifty such sections, cut from the distal end of the artery, were used for quantitation. The area of the medial smooth muscle cells was quantitated morphometrically as described above. The area was converted to volume by multiplying by 10μ.

For RVYIHPFHL [des-Aspartate-angiotensin I], the animal weight result is “no significant effect”.
